Our source for the IC50 values is patent publication US10336702B2, “Pharmaceutically active compounds” (BERGENBIO ASA, priority 2015, dated 2019).

By IC50 is commonly meant the point on the concentration scale where inhibition reaches its midpoint.

What all share (type): biochemical
In one test the target is T1, Akt3 (Homo sapiens, UniProt Q9Y243).
T1 construct: unspecified tag, removed (detagged) (cleaved yes); purchased SignalChem and Proteros (Akt3); Merck Millipore (PDK1) 14-452 (PDK1); none given for Akt3
T1 sequence (Q9Y243 whole entry): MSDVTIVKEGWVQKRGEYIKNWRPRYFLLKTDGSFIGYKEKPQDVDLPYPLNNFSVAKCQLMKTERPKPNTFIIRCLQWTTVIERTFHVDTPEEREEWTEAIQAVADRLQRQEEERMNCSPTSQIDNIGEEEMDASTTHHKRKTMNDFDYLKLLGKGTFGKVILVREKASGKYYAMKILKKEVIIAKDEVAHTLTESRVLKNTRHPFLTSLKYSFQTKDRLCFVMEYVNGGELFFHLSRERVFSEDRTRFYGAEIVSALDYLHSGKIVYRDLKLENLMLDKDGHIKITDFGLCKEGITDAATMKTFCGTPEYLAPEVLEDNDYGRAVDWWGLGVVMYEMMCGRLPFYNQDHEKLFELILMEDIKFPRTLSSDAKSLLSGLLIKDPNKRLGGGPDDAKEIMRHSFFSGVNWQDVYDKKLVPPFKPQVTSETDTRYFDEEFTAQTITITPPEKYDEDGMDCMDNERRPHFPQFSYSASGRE
Kind of test: Akt activation assay (PDK1-mediated activation, LANCE Ultra crosstide TR-FRET), Akt3. Particulars: read-out: Biological Assay 1 IC50 (nM) Akt3. As for the experimental part:
(§1) Biological Assay 1: Akt Activation Assay
(§2) Addition of a Europium-labelled antibody specific to the phosphopeptide allows energy transfer from the Europium donor to the Ultra Ulight™ acceptor if close enough in proximity.
(§3) Full length active His6-tagged PDK1 was obtained from Merck Millipore (14-452).
(§4) 1× assay buffer (AB): 50 mM HEPES pH 7.5, 1 mM EGTA, 10 mM MgCl2, 0.01% Tween. Immediately before use, DTT to a concentration of 2 mM was added.
(§5) To prepare lipid vesicles: 1 mg/ml PtdIns(3,4,5)P3 solution (in 10 mM HEPES 7.5) was added to 16.7 mg/ml DOPS/DOPC mixture (in 10 mM HEPES pH 7.5) in a ratio of 1:8.3. MilliQ water was added to the solution to generate concentrations of 400 μM DOPS, 400 μM DOPC and 40 μM PtdIns(3,4,5)P3. The mixture was subjected to 5× freeze/thaw cycles and aliquots stored at −20° C.
(§6) 5 μL enzyme in 1×AB was incubated with 2.5 μL test compound. To start the reaction 2.5 μL reaction mix was added which consisted of PDK1, lipid preparations, crosstide and ATP in 1×AB. Final assay concentrations were as follows: 1% DMSO, 5 nM SignalChem Akt1/15 nM SignalChem Akt2/3 nM Signalchem Akt3/5 nM Proteros Akt1/5 nM proteros Akt2/5 nM Proteros Akt3, 5 nM PDK1, 5.5 μM DOPS, 5.5 μM DOPC, 0.55 μM PtdIns(3,4,5)P3, 100 μM ATP, 100 nM LANCE® Ultra Ulight™-Crosstide. After 30 min, the reaction was stopped using 5 μL 40 μM EDTA in 1× Detection buffer for 5 min. For detection, 5 μL 8 nM LANCE® Ultra Europium-anti-phospho-Crosstide antibody in 1× Detection buffer was added to each well and incubated for 1 h. Plates read with the EnVision® Multilabel Plate Reader, excitation at 320 nm and emission at 665 nm and 615 nm. Compound IC50 was determined using a 4-parameter equation.
(In general: In TR-FRET formats the signal depends on donor and acceptor labels being close together.)

The next test concerns the target T2, Akt2 (Homo sapiens, UniProt P31751).
T2 construct: unspecified tag, removed (detagged) (cleaved yes); purchased SignalChem and Proteros (Akt2); Merck Millipore (PDK1) 14-452 (PDK1); none given for Akt2
Briefly: Akt activation assay (PDK1-mediated activation, LANCE Ultra crosstide TR-FRET), Akt2. The following applies: read-out: Biological Assay 1 IC50 (nM) Akt2. As for the experimental part:
as §1, §2, §3, §4, §5, §6

A further test concerns the target T3, Akt1 (Homo sapiens, UniProt P31749).
T3 construct: unspecified tag, removed (detagged) (cleaved yes); purchased SignalChem and Proteros (Akt1); Merck Millipore (PDK1) 14-452 (PDK1); none given for Akt1
Briefly: Akt activation assay (PDK1-mediated activation, LANCE Ultra crosstide TR-FRET), Akt1. Particulars: read-out: Biological Assay 1 IC50 (nM) Akt1. As for the experimental part: as §1, §2, §3, §4, §5, §6

T2 sequence (P31751 whole entry): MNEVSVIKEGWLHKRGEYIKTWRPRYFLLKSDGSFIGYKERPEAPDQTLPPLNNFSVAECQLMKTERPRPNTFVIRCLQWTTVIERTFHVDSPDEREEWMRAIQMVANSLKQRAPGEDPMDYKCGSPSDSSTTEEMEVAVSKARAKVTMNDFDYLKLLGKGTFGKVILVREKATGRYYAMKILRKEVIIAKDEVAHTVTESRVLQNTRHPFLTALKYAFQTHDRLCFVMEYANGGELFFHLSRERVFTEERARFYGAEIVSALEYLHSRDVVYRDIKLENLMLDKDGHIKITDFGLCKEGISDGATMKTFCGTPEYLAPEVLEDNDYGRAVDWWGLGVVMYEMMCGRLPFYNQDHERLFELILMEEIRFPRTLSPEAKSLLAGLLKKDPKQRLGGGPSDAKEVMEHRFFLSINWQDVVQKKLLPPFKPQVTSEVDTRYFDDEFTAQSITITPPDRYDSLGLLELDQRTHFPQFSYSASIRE
T3 sequence (P31749 whole entry): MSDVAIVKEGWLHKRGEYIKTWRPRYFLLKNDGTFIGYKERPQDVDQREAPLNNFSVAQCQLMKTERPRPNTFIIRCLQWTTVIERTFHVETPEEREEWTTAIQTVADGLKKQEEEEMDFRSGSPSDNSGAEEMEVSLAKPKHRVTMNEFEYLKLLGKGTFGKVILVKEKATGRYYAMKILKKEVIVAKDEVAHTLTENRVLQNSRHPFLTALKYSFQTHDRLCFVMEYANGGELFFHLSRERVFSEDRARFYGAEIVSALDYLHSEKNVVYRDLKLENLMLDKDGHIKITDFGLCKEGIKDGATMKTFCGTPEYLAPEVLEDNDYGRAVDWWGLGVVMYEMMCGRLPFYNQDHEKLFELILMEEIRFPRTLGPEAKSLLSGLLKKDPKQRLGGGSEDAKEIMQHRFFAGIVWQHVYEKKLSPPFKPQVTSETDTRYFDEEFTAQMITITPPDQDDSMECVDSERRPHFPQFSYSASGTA

For the molecule `CN([C@H]1CC[C@H](CC(=O)Nc2cnc(-c3ccc(C4(N)CCC4)cc3)c(-c3ccccc3F)c2)CC1)S(C)(=O)=O` [Example A16, N-(6-(4-(1-aminocyclobutyl)phenyl)-5-(2-fluorophenyl)pyridin-3-yl)-2-(trans-4-(N-methylmethylsulfonamido)cyclo-hexyl)acetamide], the IC50 at Akt3 worked out at 210 nM; at Akt2, 260 nM; on Akt1, 9800 nM.
For `CC1(C(=O)N[C@H]2CC[C@H](CC(=O)Nc3cnc(-c4ccc(C(C)(C)N)cc4)c(-c4ccccc4)c3)CC2)CC1` [Example A21, N-(trans-4-(2-((6-(4-(2-aminopropan-2-yl)phenyl)-5-phenylpyridin-3-yl)amino)-2-oxoethyl)cyclohexyl)-1-methylcyclopropane-1-carboxamide], in that order: 55 nM, 4100 nM and over 37000 nM.
For `CC(C)C(=O)N[C@H]1CC[C@H](CC(=O)Nc2cnc(-c3ccc(C(C)(C)N)cc3)c(-c3ccccc3)c2)CC1` [Example A22, N-(trans-4-(2-((6-(4-(2-aminopropan-2-yl)phenyl)-5-phenylpyridin-3-yl)amino)-2-oxoethyl)cyclohexyl)isobutyramide] the same measures were 68 nM, 3500 nM and over 30000 nM.
For `CC(=O)N[C@H]1CC[C@H](CC(=O)Nc2cnc(-c3ccc(C(C)(C)N)cc3)c(-c3ccsc3)c2)CC1` [Example A23, 2-(trans-4-acetamidocyclohexyl)-N-(6-(4-(2-aminopropan-2-yl)phenyl)-5-(thiophen-3-yl)pyridin-3-yl)acetamide], in that order: 1900 nM, 22000 nM and over 30000 nM.
In the case of `CN(C(=O)CC(C)(C)C)[C@H]1CC[C@H](CC(=O)Nc2cnc(-c3ccc(C(C)(C)N)cc3)c(-c3ccccc3)c2)CC1` [Example A30, N-(trans-4-(2-((6-(4-(2-aminopropan-2-yl)phenyl)-5-phenylpyridin-3-yl)amino)-2-oxoethyl)cyclohexyl)-N,3,3-trimethylbutanamide], the results for the IC50 at Akt3, at Akt2 and on Akt1 were 290 nM, 16000 nM and over 30000 nM, respectively.
For `CN(C(=O)C1(C)CC1)[C@H]1CC[C@H](CC(=O)Nc2cnc(-c3ccc(C(C)(C)N)cc3)c(-c3ccccc3)c2)CC1` [Example A31, N-(trans-4-(2-((6-(4-(2-aminopropan-2-yl)phenyl)-5-phenylpyridin-3-yl)amino)-2-oxoethyl)cyclohexyl)-N,1-dimethylcyclopropane-1-carboxamide] the same measures were 1400 nM, 11000 nM and over 30000 nM.
For `CN(C(=O)CC1CC1)[C@H]1CC[C@H](CC(=O)Nc2cnc(-c3ccc(C(C)(C)N)cc3)c(-c3ccccc3)c2)CC1` [Example A32, N-(trans-4-(2-((6-(4-(2-aminopropan-2-yl)phenyl)-5-phenylpyridin-3-yl)amino)-2-oxoethyl)cyclohexyl)-2-cyclopropyl-N-methylacetamide] the same measures were 630 nM, 9700 nM and over 30000 nM.
Take `NC1(c2ccc(-c3ncc(NC(=O)C[C@H]4CC[C@H](NC(=O)C(F)F)CC4)cc3-c3ccccc3)cc2)CCC1` [Example A35, N-(trans-4-(2-((6-(4-(1-aminocyclobutyl)phenyl)-5-phenylpyridin-3-yl)amino)-2-oxoethyl)cyclohexyl)-2,2-difluoroacetamide]: the IC50 stood at 20 nM on Akt3, 370 nM at Akt2 and 9400 nM at Akt1.
In the case of `CC(C)(N)c1ccc(-c2ncc(NC(=O)C[C@H]3CC[C@H](NC(=O)C4CCC4)CC3)cc2-c2ccccc2)cc1` [Example A36, N-(trans-4-(2-((6-(4-(2-aminopropan-2-yl)phenyl)-5-phenylpyridin-3-yl)amino)-2-oxoethyl)cyclohexyl)cyclobutanecarboxamide], the IC50 was 160 nM on Akt3, 6800 nM on Akt2 and over 30000 nM on Akt1.
For `NC1(c2ccc(-c3ncc(NC(=O)C[C@H]4CC[C@H](NC(=O)C5CC5)CC4)cc3-c3ccccc3)cc2)CCC1` [Example A39, N-(trans-4-(2-((6-(4-(1-aminocyclobutyl)phenyl)-5-phenylpyridin-3-yl)amino)-2-oxoethyl)cyclohexyl)cyclopropane-carboxamide], in that order: 15 nM, 140 nM and 3100 nM.
For `CC(C)(C)C(=O)N[C@H]1CC[C@H](CC(=O)Nc2cnc(-c3ccc(C4(N)CCC4)cc3)c(-c3ccsc3)c2)CC1` [Example A40, N-(trans-4-(2-((6-(4-(1-aminocyclobutyl)phenyl)-5-(thiophen-3-yl)pyridin-3-yl)amino)-2-oxoethyl)cyclohexyl)pivalamide], in that order: 25 nM, 810 nM and over 27000 nM.
For `NC1(c2ccc(-c3ncc(NC(=O)C[C@H]4CC[C@H](NC(=O)C(F)F)CC4)cc3-c3ccccc3)cc2)CC1` [Example A42, N-(trans-4-(2-((6-(4-(1-aminocyclopropyl)phenyl)-5-phenylpyridin-3-yl)amino)-2-oxoethyl)cyclohexyl)-2,2-difluoroacetamide], in that order: 280 nM, 810 nM and 6900 nM.
As to `CC(C)(C)C(=O)N[C@H]1CC[C@H](CC(=O)Nc2cnc(-c3ccc(C4(N)CC4)cc3)c(-c3ccccc3)c2)CC1` [Example A43, N-(trans-4-(2-((6-(4-(1-aminocyclopropyl)phenyl)-5-phenylpyridin-3-yl)amino)-2-oxoethyl)cyclohexyl)pivalamide], the figures for the IC50 at Akt3, at Akt2 and on Akt1 were 300 nM, 520 nM and over 22000 nM, respectively.
